In patent US20090131356A1, “miR-15, miR-26, miR-31, miR-145, miR-147, miR-188, miR-215, miR-216, miR-331, mmu-miR-292-3P REGULATED GENES AND PATHWAYS AS TARGETS FOR THERAPEUTIC INTERVENTION” (ASURAGEN, INC., priority 2006, published 2009):

System: A549 and H1299 cells
Assay: Dose-dependent Alamar Blue proliferation assay (0 pM to 3 nM)
Assay type: cell-based, human
Settings: for % proliferation: normalized to mock-transfected cells (0 pM miRNA)
Procedure: The inventors determined sensitivity and specificity of hsa-miR-147 by administering hsa-miR-147 or negative control miRNA at increasing concentrations, ranging from 0 pM to 3 nM. Delivery of miRNA and cellular proliferation of A549 and H1299 cells was assessed as described above. Alamar Blue values were normalized to values obtained from mock-transfected cells (0 pM=100% proliferation). As shown in FIG. 3 and Table 8, increasing amounts of negative control miRNA had no effect on cellular proliferation of A549 or H1299 cells. In contrast, the growth-inhibitory phenotype of hsa-miR-147 is dose-dependent and correlates with increasing amounts of hsa-miR-147. Hsa-miR-147 induces a therapeutic response at concentrations as low as 300 pM.

hsa-miR-147: Synthetic pre-miR-147 (Ambion AM17100; Dharmacon in vivo); mature sequence GUGUGUGGAAAUGCUUCUGC, MIMAT0000251, SEQ ID NO:114 (synthetic pre-miR (Ambion/Dharmacon), chemistry not given here; listed as Homo sapiens)
% proliferation (A549 Cells, 3 pM): 104.77% | % proliferation (A549 Cells, 30 pM): 99.22% | % proliferation (A549 Cells, 300 pM): 88.24% | % proliferation (A549 Cells, 3,000 pM): 75.78% | % proliferation (H1299 Cells, 3 pM): 93.08% | % proliferation (H1299 Cells, 30 pM): 88.20% | % proliferation (H1299 Cells, 300 pM): 81.82% | % proliferation (H1299 Cells, 3,000 pM): 69.70% | lowest concentration inducing a therapeutic response (concentrations 0 pM to 3 nM, normalized to mock-transfected cells): 300 pM
